Source: article PMC9953295, “Commonly Used Therapeutics Associated with Changes in Arousal Inhibit GABAAR Activation” (Biomolecules, 2023)
Where a name gives a salt, the structure may show the parent alone.

Legend:
[1] = one reference per drug; cited from earlier work
[2] = target: α1β2γ2L GABAA receptors stably expressed in HEK293 cells (Mus musculus, UniProt P22723+P62812+P63137); type: cell-based; details: for nH: Hill coefficient of modulator concentration-response; for Effect on GABAA receptor activation (in words): microfluidic patch clamp, concentrations up to 300 μM
α1β2γ2L GABAA receptors stably expressed in HEK293 cells, sequence (P63137 26-512): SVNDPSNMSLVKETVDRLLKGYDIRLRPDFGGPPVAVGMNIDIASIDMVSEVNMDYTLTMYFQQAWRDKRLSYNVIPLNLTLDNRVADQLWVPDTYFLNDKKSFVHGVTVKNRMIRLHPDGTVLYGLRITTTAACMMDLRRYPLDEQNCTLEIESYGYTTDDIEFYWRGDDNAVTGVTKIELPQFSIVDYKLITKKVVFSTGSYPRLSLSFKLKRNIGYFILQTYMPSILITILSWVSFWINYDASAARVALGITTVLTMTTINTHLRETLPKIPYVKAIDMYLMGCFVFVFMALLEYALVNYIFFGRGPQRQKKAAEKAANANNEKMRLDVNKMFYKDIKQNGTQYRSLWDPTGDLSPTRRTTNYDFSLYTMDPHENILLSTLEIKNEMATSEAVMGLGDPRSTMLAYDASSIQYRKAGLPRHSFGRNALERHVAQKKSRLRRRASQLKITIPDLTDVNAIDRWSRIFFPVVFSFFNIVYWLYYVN
α1β2γ2L GABAA receptors stably expressed in HEK293 cells, sequence (P22723 39-474): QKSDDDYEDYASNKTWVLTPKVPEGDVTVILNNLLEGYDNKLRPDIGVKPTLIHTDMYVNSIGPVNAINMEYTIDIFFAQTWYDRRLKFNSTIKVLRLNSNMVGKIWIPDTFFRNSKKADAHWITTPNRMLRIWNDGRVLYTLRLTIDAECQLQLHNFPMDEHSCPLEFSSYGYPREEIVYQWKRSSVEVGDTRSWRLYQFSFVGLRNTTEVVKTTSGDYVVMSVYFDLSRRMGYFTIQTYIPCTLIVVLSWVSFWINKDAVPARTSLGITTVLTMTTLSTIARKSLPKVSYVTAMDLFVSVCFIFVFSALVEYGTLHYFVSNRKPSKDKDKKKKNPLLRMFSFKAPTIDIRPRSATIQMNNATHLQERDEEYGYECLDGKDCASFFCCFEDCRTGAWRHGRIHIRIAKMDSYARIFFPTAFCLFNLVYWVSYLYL
α1β2γ2L GABAA receptors stably expressed in HEK293 cells, sequence (P62812 28-455): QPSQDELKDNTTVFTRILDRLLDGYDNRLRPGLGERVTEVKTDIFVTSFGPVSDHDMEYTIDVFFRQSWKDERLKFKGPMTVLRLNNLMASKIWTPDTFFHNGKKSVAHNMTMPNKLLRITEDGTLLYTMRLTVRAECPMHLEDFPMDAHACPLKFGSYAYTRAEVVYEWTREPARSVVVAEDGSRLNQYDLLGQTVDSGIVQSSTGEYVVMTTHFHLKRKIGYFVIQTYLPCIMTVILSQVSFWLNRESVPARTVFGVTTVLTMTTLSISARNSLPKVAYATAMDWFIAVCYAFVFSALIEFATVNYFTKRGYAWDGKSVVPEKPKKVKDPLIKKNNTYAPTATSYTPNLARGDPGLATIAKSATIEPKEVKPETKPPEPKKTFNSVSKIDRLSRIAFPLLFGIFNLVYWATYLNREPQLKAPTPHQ
Description: Extracellular saline solutions contained 140 mM NaCl, 5 mM KCl, 2 mM CaCl2, 1 mM MgCl2, 10 mM HEPES, and 10 mM D-glucose. Both salines were adjusted to pH 7.4 (330 mOsm) and were 0.2 µm filter sterilized. The composition was based on solutions designed for long duration HEK293 biophysics studies. HEK293 cells stably expressing mouse α1β2γ2L receptors were dissociated with detachin (Genlantis, San Diego, CA, USA), resuspended in extracellular saline (2.5 × 10^6 cells/mL), and agitated prior to loading into 384-well Fluxion ensemble plates.
Cells were patched using an Ionflux Mercury microfluidic automated patch clamp system (Fluxion Biosciences, Oakland, CA, USA). Each experiment ran on a disposable 384-well plate with microfluidic channels printed into an ionized polydimethylsiloxane base. Each plate was divided into 4 zones, each containing 8 repeats of the same experimental pattern (see Figure 1). Each pattern comprised 8 compound wells containing the ligands/modulator combinations to be used in the experiment. Connected to these by a manifold perfusion chamber was an inlet well containing the cell suspension, an outlet well for discarded perfusate, and 2 trapping wells. Both trapping wells contained intracellular solution and were connected to the manifold via 20 1 µm diameter holes for cell attachment (each pattern can patch up to 40 cells simultaneously). Intracellular electrodes were placed in the 2 trapping wells, and the reference electrode in the waste well. Electrodes were connected to 64 conventional low-noise resistive feedback amplifiers. After cleaning, the plates were loaded with up to 100 µL of experimental solution or cell suspension per well. Each plate was loaded into the Fluxion Ionflux Mercury device, and a bespoke script primed the experimental fluidic channels and manifold, and the traps and sealed cells for voltage clamp measurements, and finally, controlled solution application/concentration jumps prior to saving the data collected. Agonist applications were repeated in triplicate (see Supplemental Figure S1). The current data were recorded at 10 kHz and stored for offline analysis. MATLAB scripts were used to measure the baseline leak current and peak response for each episode of data (typically 2000–4000/experiment). The matrix of peaks was expressed as a percentage of the response to a reference concentration. For the agonist concentration–response experiments, this was the maximum response. For the modulator concentration–response experiments, this was the EC10 agonist response.

[3] = target: T1, Human GABAA receptor (α1β2γ2s) expressed in HEK293 cells (Homo sapiens, UniProt P14867+P18507+P47870); test: Conventional whole-cell patch clamp: GABAA receptor activation and CSF-mediated potentiation; type: cell-based; details: for Effect on GABAA receptor activation (in words): conventional single electrode patch clamp
T1 construct: expressed in transfected cells; host or cells: HEK293
T1 sequence (P14867 28-456): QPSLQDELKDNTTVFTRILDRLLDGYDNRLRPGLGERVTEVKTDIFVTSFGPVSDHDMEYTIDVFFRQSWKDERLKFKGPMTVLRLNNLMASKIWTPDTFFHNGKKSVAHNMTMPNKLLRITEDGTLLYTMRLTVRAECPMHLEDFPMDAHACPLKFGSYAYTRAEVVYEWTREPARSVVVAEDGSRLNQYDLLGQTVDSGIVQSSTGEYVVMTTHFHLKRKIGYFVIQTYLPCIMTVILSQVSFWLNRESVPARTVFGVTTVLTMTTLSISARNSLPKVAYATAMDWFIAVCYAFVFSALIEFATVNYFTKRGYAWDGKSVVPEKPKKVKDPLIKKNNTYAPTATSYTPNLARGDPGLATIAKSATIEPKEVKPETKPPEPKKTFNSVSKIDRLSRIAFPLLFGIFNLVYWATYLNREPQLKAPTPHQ
T1 sequence (P47870 25-512 limits assumed): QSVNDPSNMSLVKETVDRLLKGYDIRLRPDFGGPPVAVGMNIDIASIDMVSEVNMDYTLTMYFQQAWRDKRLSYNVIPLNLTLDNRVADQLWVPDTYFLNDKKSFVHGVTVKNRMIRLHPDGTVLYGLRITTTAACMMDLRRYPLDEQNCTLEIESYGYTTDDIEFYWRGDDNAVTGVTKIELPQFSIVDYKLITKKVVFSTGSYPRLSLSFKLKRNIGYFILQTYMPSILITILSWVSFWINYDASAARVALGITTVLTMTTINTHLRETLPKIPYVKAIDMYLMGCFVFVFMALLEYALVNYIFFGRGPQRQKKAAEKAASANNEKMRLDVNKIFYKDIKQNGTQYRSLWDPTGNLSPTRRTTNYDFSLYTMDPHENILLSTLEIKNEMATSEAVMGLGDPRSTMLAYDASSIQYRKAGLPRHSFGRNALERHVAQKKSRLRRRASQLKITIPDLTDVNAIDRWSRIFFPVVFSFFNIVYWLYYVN
T1 sequence (P18507 40-467 isoform P18507-1 limits assumed): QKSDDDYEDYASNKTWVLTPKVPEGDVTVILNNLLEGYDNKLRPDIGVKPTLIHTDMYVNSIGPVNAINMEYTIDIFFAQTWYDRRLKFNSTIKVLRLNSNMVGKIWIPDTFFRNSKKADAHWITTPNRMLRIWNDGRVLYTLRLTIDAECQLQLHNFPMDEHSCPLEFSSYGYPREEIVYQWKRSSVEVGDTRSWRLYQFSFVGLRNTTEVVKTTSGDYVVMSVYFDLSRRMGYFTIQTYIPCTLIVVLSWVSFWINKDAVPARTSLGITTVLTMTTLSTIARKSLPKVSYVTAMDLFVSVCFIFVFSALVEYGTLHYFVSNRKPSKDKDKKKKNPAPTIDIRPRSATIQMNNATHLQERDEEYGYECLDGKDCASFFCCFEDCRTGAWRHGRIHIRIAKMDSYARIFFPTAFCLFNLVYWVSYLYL
Description: Human GABAA receptor cDNAs (α1β2γ2s) were subcloned into the pcDNA 3.1 expression vector, and they were subsequently transfected into HEK293 cells using standard methods. Forty-eight hours later, cells were exposed to individual GABAARNAM solutions with simultaneous exposure to GABA. GABAARNAMs were obtained from Sigma-Aldrich, and the solutions were prepared with a saline solution to 1–300 µM concentrations. […] Stable cell lines were generated and handled as previously described.
Patch pipettes were fabricated from thin-walled borosilicate glass (TW150F-4, World Precision Instruments, Inc., Sarasota, FL, USA) using a horizontal puller (P-97, Sutter Instrument Co., Novato, CA, USA). The resistances of the patch pipettes were 2–5 megaohms when filled with an intracellular solution containing 120 mM KCl, 2 mM MgCl2, 10 mM EGTA, and 10 mM HEPES, adjusted to pH 7.2 with NaOH. Cells were perfused continuously with an extracellular solution containing 160 mM NaCl, 10 mM HEPES, 6 mM D-glucose, 3 mM KCl, 1 mM MgCl2, and 1.5 mM CaCl2, adjusted to pH 7.4. Two 10-channel infusion pumps (KD Scientific) and a rapid solution exchanger (Biologic) were used to apply extracellular saline to the cells. […] The solution changer was driven by protocols written in pClamp 9.2 (Molecular Devices).

[4] = parameters: method as in PMID 10384859; details: cited from earlier work

| SMILES | [CNS] concentration of drug in the CNS [1] | nH [2] | Effect on GABAA receptor activation (in words) [2] | also measured |
| --- | --- | --- | --- | --- |
| CCN(CC)CCCC(C)Nc1ccnc2cc(Cl)ccc12 (stereo not shown) [Chloroquine] | 1.60 [36] μM | – | – | – |
| CC[C@H]1OC(=O)[C@H](C)[C@@H](O[C@H]2C[C@@](C)(OC)[C@@H](O)[C@H](C)O2)[C@H](C)[C@@H](O[C@@H]2O[C@H](C)C[C@H](N(C)C)[C@H]2O)[C@](C)(OC)C[C@@H](C)C(=O)[C@H](C)[C@@H](O)[C@]1(C)O [Clarithromycin, clarithromycin] | 10 [37] μM | 1 | reversibly inhibited GABAA receptor activation in a concentration-dependent manner | Effect of clarithromycin concentration on GABA EC50 (in words) ([2]; GABA concentration–function relationships in 0–300 μM clarithromycin): GABA EC50 continued to increase; Reversal of CSF-induced potentiation of GABA receptor function ([3]; 300 μM clarithromycin, currents activated by 10 μM GABA (EC10), CSF from hypersomnolent patients, n = 6 cells): 71 ± 13%; Intrinsic efficacy at GABAA receptor (in words) ([3]; clarithromycin applied without GABA): no intrinsic efficacy; Effect on GABAA receptor activation (in words) [3]: reversibly inhibits receptor activation |
| O=C(O[C@@H]1Cc2c(O)cc(O)cc2O[C@@H]1c1cc(O)c(O)c(O)c1)c1cc(O)c(O)c(O)c1 [EGCG, (-)-Epigallocatechin Gallate] | 0.18 [35] μM | 1.1 | modest inhibition of GABA activation | – |
| CC[C@H]1OC(=O)[C@H](C)[C@@H](O[C@H]2C[C@@](C)(OC)[C@@H](O)[C@H](C)O2)[C@H](C)[C@@H](O[C@@H]2O[C@H](C)C[C@H](N(C)C)[C@H]2O)[C@](C)(O)C[C@@H](C)C(=O)[C@H](C)[C@@H](O)[C@]1(C)O [Erythromycin] | 0.68 [38] μM | – | – | – |
| NCCCC(=O)O [GABA] | – | – | – | Response to GABA as % of the maximal response ([2]; 100 µM GABA): > 90% |
| CCN(CCO)CCCC(C)Nc1ccnc2cc(Cl)ccc12 (stereo not shown) [Hydroxychloroquine, Hydroxychloroquine sulfate] | 50 [39] μM | 1.4 | modest and incomplete block of receptor activation | – |
| Cc1ncc([N+](=O)[O-])n1CCO [Metronidazole] | – | 0.8 | modest inhibition of GABA activation | Bioavailability ([4]; administered orally): > 90%; CNS concentration as % of plasma concentrations [4]: 60–100% |
| CN(C)c1ccc(O)c2c1C[C@H]1C[C@H]3[C@H](N(C)C)C(O)=C(C(N)=O)C(=O)[C@@]3(O)C(O)=C1C2=O [Minocycline] | 1.1 [41] μM | – | irreversible blocker | – |
| CC1COc2c(N3CCN(C)CC3)c(F)cc3c(=O)c(C(=O)O)cn1c23 (stereo not shown) [Ofloxacin] | 5.6 [42] μM | – | modest and incomplete block of receptor activation | Effect on GABAA receptor activation (in words) [3]: modest and incomplete block of receptor activation |
| C1CCc2nnnn2CC1 [pentylenetetrazole, Pentylenetetrazol] | 330 [43] μM | 1.3 | blocked GABAAR activation in a concentration-dependent manner | – |
